Experimental data reported in ChEMBL document CHEMBL3885881, “DrugMatrix”.

Organism: Rattus norvegicus
Experiment: DrugMatrix - Regimen: Daily Repeat
Format: toxicity, organism-based, Sprague-Dawley
Design: regimen Daily Repeat, gender Male, age 6-8 weeks
Conditions: in vivo, po, 0 mg/kg, route oral GAVAGE, dose level Control, vehicle .5 % CMC; for BASOPHIL / EOSINOPHIL / ERYTHROCYTE COUNT / HEMATOCRIT / HEMOGLOBIN / LEUKOCYTE COUNT / LYMPHOCYTE / MEAN CORPUSCULAR HEMOGLOBIN / MEAN CORPUSCULAR HEMOGLOBIN CONCENTRATION / MEAN CORPUSCULAR VOLUME / MONOCYTE / NEUTROPHIL / PLATELET COUNT: tissue Blood; for ALANINE AMINOTRANSFERASE / ALBUMIN / ALKALINE PHOSPHATASE / ASPARTATE AMINOTRANSFERASE / BLOOD UREA NITROGEN / CARBON DIOXIDE / CHLORIDE / CHOLESTEROL / CREATINE PHOSPHOKINASE / CREATININE / GLUCOSE / LACTATE DEHYDROGENASE / LIPASE / PHOSPHORUS / POTASSIUM / SODIUM / TOTAL BILIRUBIN / TOTAL PROTEIN / URIC ACID: tissue Plasma

`CCOP(=S)(OCC)Oc1nc(Cl)c(Cl)cc1Cl` [CHLORPYRIFOS] was tested, and the BASOPHIL (72 h, time 3 day) was 0.62%, the EOSINOPHIL (72 h, time 3 day) was 0.52% and the “ERYTHROCYTE COUNT” value (72 h, time 3 day) was 6.33 x10E6/uL. The HEMATOCRIT (72 h, time 3 day) was 41.88%, the HEMOGLOBIN (72 h, time 3 day) was 13.52 G/DL and the “LEUKOCYTE COUNT” value (72 h, time 3 day) was 11.39 x10E3/uL. For the same compound, the LYMPHOCYTE (72 h, time 3 day) was 86.18%, the “MEAN CORPUSCULAR HEMOGLOBIN” value (72 h, time 3 day) was 21.35 pg and the “MEAN CORPUSCULAR HEMOGLOBIN CONCENTRATION” value (72 h, time 3 day) was 32.23 G/DL. For the same compound, the “MEAN CORPUSCULAR VOLUME” value (72 h, time 3 day) was 66.25 fL, the MONOCYTE (72 h, time 3 day) was 1.93% and the NEUTROPHIL (72 h, time 3 day) was 9.1%. For the same compound, the “PLATELET COUNT” value (72 h, time 3 day) was 1204.5 x10E3/uL, the “ALANINE AMINOTRANSFERASE” value (72 h, time 3 day) was 43 u/L and the ALBUMIN (72 h, time 3 day) was 4.08 G/DL. The “ALKALINE PHOSPHATASE” value (72 h, time 3 day) was 426.33 u/L, the “ASPARTATE AMINOTRANSFERASE” value (72 h, time 3 day) was 72.5 u/L and the “BLOOD UREA NITROGEN” value (72 h, time 3 day) was 16.67 mg/dL. For the same compound, the “CARBON DIOXIDE” value (72 h, time 3 day) was 28.33 mmol/L, the CHLORIDE (72 h, time 3 day) was 103.5 MEQ/L and the CHOLESTEROL (72 h, time 3 day) was 78.83 mg/dL. For the same compound, the “CREATINE PHOSPHOKINASE” value (72 h, time 3 day) was 325.67 u/L, the CREATININE (72 h, time 3 day) was 0.48 mg/dL and the GLUCOSE (72 h, time 3 day) was 171.67 mg/dL. The “LACTATE DEHYDROGENASE” value (72 h, time 3 day) was 107.33 u/L, the LIPASE (72 h, time 3 day) was 11.83 u/L and the PHOSPHORUS (72 h, time 3 day) was 12.55 mg/dL. For the same compound, the POTASSIUM (72 h, time 3 day) was 6.57 MEQ/L, the SODIUM (72 h, time 3 day) was 145.67 MEQ/L and the “TOTAL BILIRUBIN” value (72 h, time 3 day) was 0.42 mg/dL. For the same compound, the “TOTAL PROTEIN” value (72 h, time 3 day) was 6.1 G/DL, the “URIC ACID” value (72 h, time 3 day) was 1.57 mg/dL and the BASOPHIL (120 h, time 5 day) was 0.48%. The EOSINOPHIL (120 h, time 5 day) was 0.67%, the “ERYTHROCYTE COUNT” value (120 h, time 5 day) was 6.69 x10E6/uL and the HEMATOCRIT (120 h, time 5 day) was 44.17%. For the same compound, the HEMOGLOBIN (120 h, time 5 day) was 13.78 G/DL, the “LEUKOCYTE COUNT” value (120 h, time 5 day) was 7.86 x10E3/uL and the LYMPHOCYTE (120 h, time 5 day) was 85.9%. For the same compound, the “MEAN CORPUSCULAR HEMOGLOBIN” value (120 h, time 5 day) was 20.6 pg, the “MEAN CORPUSCULAR HEMOGLOBIN CONCENTRATION” value (120 h, time 5 day) was 31.25 G/DL and the “MEAN CORPUSCULAR VOLUME” value (120 h, time 5 day) was 65.9 fL. The MONOCYTE (120 h, time 5 day) was 3.27%, the NEUTROPHIL (120 h, time 5 day) was 8.67% and the “PLATELET COUNT” value (120 h, time 5 day) was 1182.33 x10E3/uL. The “ALANINE AMINOTRANSFERASE” value (120 h, time 5 day) was 37.5 u/L, the ALBUMIN (120 h, time 5 day) was 4 G/DL and the “ALKALINE PHOSPHATASE” value (120 h, time 5 day) was 348.17 u/L. For the same compound, the “ASPARTATE AMINOTRANSFERASE” value (120 h, time 5 day) was 71.67 u/L, the “BLOOD UREA NITROGEN” value (120 h, time 5 day) was 13 mg/dL and the “CARBON DIOXIDE” value (120 h, time 5 day) was 27 mmol/L. For the same compound, the CHLORIDE (120 h, time 5 day) was 104.67 MEQ/L, the CHOLESTEROL (120 h, time 5 day) was 73.33 mg/dL and the “CREATINE PHOSPHOKINASE” value (120 h, time 5 day) was 211.33 u/L. The CREATININE (120 h, time 5 day) was 0.23 mg/dL, the GLUCOSE (120 h, time 5 day) was 155 mg/dL and the “LACTATE DEHYDROGENASE” value (120 h, time 5 day) was 133.83 u/L. The LIPASE (120 h, time 5 day) was 11.17 u/L, the PHOSPHORUS (120 h, time 5 day) was 14.53 mg/dL and the POTASSIUM (120 h, time 5 day) was 6.65 MEQ/L. For the same compound, the SODIUM (120 h, time 5 day) was 148.17 MEQ/L, the “TOTAL BILIRUBIN” value (120 h, time 5 day) was 0.28 mg/dL and the “TOTAL PROTEIN” value (120 h, time 5 day) was 6.22 G/DL. The “URIC ACID” value (120 h, time 5 day) was 1.57 mg/dL, the BASOPHIL ([…], time 14 day) was 0.97% and the EOSINOPHIL ([…], time 14 day) was 0.8%. For the same compound, the “ERYTHROCYTE COUNT” value ([…], time 14 day) was 7.02 x10E6/uL, the HEMATOCRIT ([…], time 14 day) was 44.43% and the HEMOGLOBIN ([…], time 14 day) was 14.58 G/DL. The “LEUKOCYTE COUNT” value ([…], time 14 day) was 16.49 x10E3/uL, the LYMPHOCYTE ([…], time 14 day) was 79.03% and the “MEAN CORPUSCULAR HEMOGLOBIN” value ([…], time 14 day) was 20.85 pg. The “MEAN CORPUSCULAR HEMOGLOBIN CONCENTRATION” value ([…], time 14 day) was 32.78 G/DL, the “MEAN CORPUSCULAR VOLUME” value ([…], time 14 day) was 63.57 fL and the MONOCYTE ([…], time 14 day) was 1.9%. The NEUTROPHIL ([…], time 14 day) was 15.18%, the “PLATELET COUNT” value ([…], time 14 day) was 1184.33 x10E3/uL and the “ALANINE AMINOTRANSFERASE” value ([…], time 14 day) was 43 u/L. For the same compound, the ALBUMIN ([…], time 14 day) was 4.25 G/DL, the “ALKALINE PHOSPHATASE” value ([…], time 14 day) was 409.67 u/L and the “ASPARTATE AMINOTRANSFERASE” value ([…], time 14 day) was 84.17 u/L. For the same compound, the “BLOOD UREA NITROGEN” value ([…], time 14 day) was 16 mg/dL, the “CARBON DIOXIDE” value ([…], time 14 day) was 35.17 mmol/L and the CHLORIDE ([…], time 14 day) was 99.83 MEQ/L. For the same compound, the CHOLESTEROL ([…], time 14 day) was 68.67 mg/dL, the “CREATINE PHOSPHOKINASE” value ([…], time 14 day) was 384.17 u/L and the CREATININE ([…], time 14 day) was 0.43 mg/dL. The GLUCOSE ([…], time 14 day) was 160 mg/dL, the “LACTATE DEHYDROGENASE” value ([…], time 14 day) was 115.33 u/L and the LIPASE ([…], time 14 day) was 17.33 u/L. It also gave a PHOSPHORUS ([…], time 14 day) of 10.68 mg/dL, a POTASSIUM ([…], time 14 day) of 6.48 MEQ/L and an SODIUM ([…], time 14 day) of 148.17 MEQ/L. The “TOTAL BILIRUBIN” value ([…], time 14 day) was 0.45 mg/dL and the “TOTAL PROTEIN” value ([…], time 14 day) was 6.57 G/DL.
